Where two headings read alike, the source gives them in different places.
Legend:
human CB2 receptors = molecular target: T1, human CB2 receptors (Homo sapiens, UniProt P34972); test: Human CB2 radioligand binding assay ([3H]CP-55,940 competition)
T1 construct: expressed in transfected cells; host or cells: HEK293
Protocol: The CB1 and CB2 radioligand binding assays described herein are utilized to determine the selectivity of compounds of the present invention for binding to CB2 relative to CB1 receptors.
(§1) HEK293 cells stably expressing human CB2 receptors were grown until a confluent monolayer was formed. Briefly, the cells were harvested and homogenized in TE buffer (50 mM Tris-HCl, 1 mM MgCl2, and 1 mM EDTA) using a polytron for 2×10 second bursts in the presence of protease inhibitors, followed by centrifugation at 45,000×g for 20 minutes. The final membrane pellet was re-homogenized in storage buffer (50 mM Tris-HCl, 1 mM MgCl2, and 1 mM EDTA and 10% sucrose) and frozen at −78° C. until used. Saturation binding reactions were initiated by the addition of membrane preparation (protein concentration of 5 μg/well for human CB2) into wells of a deep well plate containing ([^3H]CP-55,940 (120 Ci/mmol, a nonselective CB agonist commercially available from Tocris) in assay buffer (50 mM Tris, 2.5 mM EDTA, 5 mM MgCl2, and 0.5 mg/mL fatty acid free BSA, pH 7.4). After 90 min incubation at 30° C., binding reaction was terminated by the addition of 300 μL/well of cold assay buffer followed by rapid vacuum filtration through a UniFilter-96 GF/C filter plates (pre-soaked in 1 mg/mL BSA for 2 hours). The bound activity was counted in a TopCount using Microscint-20. Saturation experiments were conducted with twelve concentrations of [^3H]CP-55,940 ranging from 0.01 to 8 nM. Competition experiments were conducted with 0.5 nM [^3H]CP-55,940 and five concentrations of displacing ligands selected from the range of 0.01 nM to 10 μM. The addition of 10 μM unlabeled CP-55,940 (Tocris, Ellisville, Mo.) was used to assess nonspecific binding.

rat CB2 receptors = molecular target: T2, rat CB2 receptors (Rattus norvegicus, UniProt Q9QZN9); test: Rat CB2 radioligand binding assay ([3H]CP-55,940 competition)
T2 construct: expressed in transfected cells; host or cells: HEK293
T2 sequence (Q9QZN9 1-360): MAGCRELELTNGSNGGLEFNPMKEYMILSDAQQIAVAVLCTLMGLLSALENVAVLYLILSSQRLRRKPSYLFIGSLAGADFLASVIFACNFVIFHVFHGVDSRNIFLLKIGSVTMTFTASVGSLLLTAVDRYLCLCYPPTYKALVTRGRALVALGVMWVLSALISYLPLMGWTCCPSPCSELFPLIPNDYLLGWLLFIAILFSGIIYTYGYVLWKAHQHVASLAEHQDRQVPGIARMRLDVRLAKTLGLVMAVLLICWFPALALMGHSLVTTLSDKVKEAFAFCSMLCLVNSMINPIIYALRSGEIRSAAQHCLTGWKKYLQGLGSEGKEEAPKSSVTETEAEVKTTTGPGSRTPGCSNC
Protocol: as §1, with “expressing rat” for “expressing human”, “of 20” for “of 5”, “for rat” for “for human”, “containing [^3H]CP-55,940” for “containing ([^3H]CP-55,940”, “After 45” for “After 90”, “[…]” for “10 μM.”

T1 sequence (P34972 whole entry): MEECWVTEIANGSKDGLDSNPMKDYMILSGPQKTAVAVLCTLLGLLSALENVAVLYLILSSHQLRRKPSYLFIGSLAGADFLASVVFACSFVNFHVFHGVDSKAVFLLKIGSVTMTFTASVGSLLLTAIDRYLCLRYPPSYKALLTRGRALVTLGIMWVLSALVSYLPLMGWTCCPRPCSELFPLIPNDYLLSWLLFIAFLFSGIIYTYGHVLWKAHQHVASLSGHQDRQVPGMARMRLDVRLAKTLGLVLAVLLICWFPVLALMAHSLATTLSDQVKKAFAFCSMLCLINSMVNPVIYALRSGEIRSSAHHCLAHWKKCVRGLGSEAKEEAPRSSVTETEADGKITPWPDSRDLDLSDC

| SMILES | Ki (human CB2 receptors) [nM] | Ki (rat CB2 receptors) [nM] | Ki (rat CB2 receptors; HEK293 membranes, 0.5 nM [3H]CP-55,940, read-out: rat CB2 Ki) [nM] |
| --- | --- | --- | --- |
| Cn1c(C(C)(C)C)c/c(=N\C(=O)c2cccc(S(F)(F)(F)(F)F)c2)n1C[C@H]1CCCO1 [Example 15, N-{(3E)-5-tert-butyl-1-methyl-2-[(2R)-tetrahydrofuran-2-ylmethyl]-1,2-dihydro-3H-pyrazol-3-ylidene}-3-(pentafluoro-lambda˜6˜sulfanyl)benzamide] | 2.8 | 1.2 | – |
| C[C@@H](F)COc1ccc(C(F)(F)F)cc1C(=O)/N=c1\cc(C(C)(C)C)n(C)n1C[C@H]1CCCO1 [Example 41, N-{(3E)-5-tert-butyl-1-methyl-2-[(2R)-tetrahydrofuran-2-ylmethyl]-1,2-dihydro-3H-pyrazol-3-ylidene}-2-{[(2R)-2-fluoropropyl]oxy}-5-(trifluoromethyl)benzamide] | 132 | 18 | – |
| COC(=O)Cc1ccc(C(F)(F)F)cc1C(=O)/N=c1\cc(C(C)(C)C)n(C)n1C[C@H]1CCCO1 [Example 128, methyl [2-[({(3E)-5-tert-butyl-1-methyl-2-[(2R)-tetrahydrofuran-2-ylmethyl]-1,2-dihydro-3H-pyrazol-3-ylidene}amino)carbonyl]-4-(trifluoromethyl)phenyl]acetate] | 243 | 107 | – |
| COc1ccc(C(F)(F)F)cc1C(=O)/N=c1\c2c(n(C)n1C[C@H]1CCCO1)CCC2 [Example 32, 2-methoxy-N-[(3E)-1-methyl-2-[(2R)-tetrahydrofuran-2-ylmethyl]-1,4,5,6-tetrahydrocyclopenta[c]pyrazol-3(2H)-ylidene]-5-(trifluoromethyl)benzamide] | 261 | – | 114 |
| Cn1c(C(C)(C)C)c/c(=N\C(=O)c2cc(C(F)(F)F)ccc2CC(=O)OC(C)(C)C)n1C[C@H]1CCCO1 [Example 111, tert-butyl [2-[({(3E)-5-tert-butyl-1-methyl-2-[(2R)-tetrahydrofuran-2-ylmethyl]-1,2-dihydro-3H-pyrazol-3-ylidene}amino)carbonyl]-4-(trifluoromethyl)phenyl]acetate] | 14 | 12 | – |
| COCCNc1ccc(C(F)(F)F)cc1C(=O)/N=c1\cc(C(C)(C)C)n(C)n1C[C@H]1CCCO1 [Example 34] | 11 | 5.5 | – |
| Cn1c(C(C)(C)C)c/c(=N\C(=O)c2cc(Cl)ccc2F)n1C[C@H]1CCCO1 [Example 116] | 26 | 11 | – |
| CC(C)CS(=O)(=O)Nc1ccc(C(F)(F)F)cc1C(=O)/N=c1\cc(C(C)(C)C)n(C)n1C[C@H]1CCCO1 [Example 125, N-{(3E)-5-tert-butyl-1-methyl-2-[(2R)-tetrahydrofuran-2-ylmethyl]-1,2-dihydro-3H-pyrazol-3-ylidene}-2-[(isobutylsulfonyl)amino]-5-(trifluoromethyl)benzamide] | 32 | 25 | – |
| Cn1c(C(C)(C)C)c/c(=N\C(=O)c2cc(Br)ccc2OCCF)n1C[C@H]1CCCO1 [Example 59, 5-bromo-N-{(3E)-5-tert-butyl-1-methyl-2-[(2R)-tetrahydrofuran-2-ylmethyl]-1,2-dihydro-3H-pyrazol-3-ylidene}-2-(2-fluoroethoxy)benzamide] | 28 | 27 | – |
| Cc1ccc(C(F)(F)F)cc1C(=O)/N=c1\cc(C(C)(C)C)n(C)n1C[C@H]1CCCO1 [Example 86] | 11 | 3.3 | – |
| COc1ccc(C(F)(F)F)cc1C(=O)/N=c1\cc(C(C)(C)C)n(C)n1CC1CC[C@@H](C)O1 (mixture of isomers) [Example 64, N-((3E)-5-tert-butyl-1-methyl-2-{[(5R)-5-methyltetrahydrofuran-2-yl]methyl}-1,2-dihydro-3H-pyrazol-3-ylidene)-2-methoxy-5-(trifluoromethyl)benzamide] | 30 | 6.2 | – |
| Cn1c(C(C)(C)C)c/c(=N\C(=O)c2cc(C(F)(F)F)ccc2NC(=O)OC(C)(C)C)n1C[C@H]1CCCO1 [Example 120, tert-butyl 2-[({(3E)-5-tert-butyl-1-methyl-2-[(2R)-tetrahydrofuran-2-ylmethyl]-1,2-dihydro-3H-pyrazol-3-ylidene}amino)carbonyl]-4-(trifluoromethyl)phenylcarbamate] | 1.7 | 2.1 | – |
| CC(CCc1ccccc1)NC(=O)/N=c1\sc(C(C)(C)C)nn1C[C@H]1CCCO1 (stereo partly drawn) [Example 79, N-[(2Z)-5-tert-butyl-3-[(2R)-tetrahydrofuran-2-ylmethyl]-1,3,4-thiadiazol-2(3 H)-ylidene]-N′-(1-methyl-3-phenylpropyl)urea] | 32 | 11 | – |
| CC(C)(C)c1nn(C[C@H]2CCCO2)/c(=N/C(=O)NC2CCCc3ccccc32)s1 (stereo partly drawn) [Example 73, N-[(2Z)-5-tert-butyl-3-[(2R)-tetrahydrofuran-2-ylmethyl]-1,3,4-thiadiazol-2(3 H)-ylidene]-N′-1,2,3,4-tetrahydronaphthalen-1-ylurea] | 45 | 8.2 | – |
| COC(C)(C)CCOc1ccc(C(F)(F)F)cc1C(=O)/N=c1\cc(C(C)(C)C)n(C)n1C[C@H]1CCCO1 [Example 20, N-{(3E)-5-tert-butyl-1-methyl-2-[(2R)-tetrahydrofuran-2-ylmethyl]-1,2-dihydro-3H-pyrazol-3-ylidene}-2-(3-methoxy-3-methylbutoxy)-5-(trifluoromethyl)benzamide] | 25 | 23 | – |
| CN1CC[C@H](Oc2ccc(C(F)(F)F)cc2C(=O)/N=c2\sc(C(C)(C)C)nn2C[C@H]2CCCO2)C1 [Example 97, N-[(2Z)-5-tert-butyl-3-[(2R)-tetrahydrofuran-2-ylmethyl]-1,3,4-thiadiazol-2(3 H)-ylidene]-2-{[(3S)-1-methylpyrrolidin-3-yl]oxy}-5-(trifluoromethyl)benazmide] | 63 | 46 | – |
| COc1ccc(Cl)cc1C(=O)/N=c1\sc(C2CC2)nn1CC1CCCO1 (stereo not shown) [Example 2, 5-chloro-N-[(2Z)-5-cyclopropyl-3-(tetrahydrofuran-2-ylmethyl)-1,3,4-thiadiazol-2(3 H)-ylidene]-2-methoxybenzamide] | 17 | 12 | – |
| Cn1c(C(C)(C)C)c/c(=N\C(=O)c2cccc(C#N)c2)n1C[C@H]1CCCO1 [Example 130, N-{(3E)-5-tert-butyl-1-methyl-2-[(2R)-tetrahydrofuran-2-ylmethyl]-1,2-dihydro-3H-pyrazol-3-ylidene}-3-cyanobenzamide] | 72 | 17 | – |
| CN(C)S(=O)(=O)Nc1ccc(C(F)(F)F)cc1C(=O)/N=c1\cc(C(C)(C)C)n(C)n1C[C@H]1CCCO1 [Example 121, N-{(3E)-5-tert-butyl-1-methyl-2-[(2R)-tetrahydrofuran-2-ylmethyl]-1,2-dihydro-3H-pyrazol-3-ylidene}-2-{[(dimethylamino)sulfonyl]amino}-5-(trifluoromethyl)benzamide] | 53 | 15 | – |
| Cn1c(C(C)(C)C)c/c(=N\C(=O)c2cc(C(F)(F)F)ccc2NCCF)n1C[C@H]1CCCO1 [Example 39, N-{(3E)-5-tert-butyl-1-methyl-2-[(2R)-tetrahydrofuran-2-ylmethyl]-1,2-dihydro-3H-pyrazol-3-ylidene}-2-[(2-fluoroethyl)amino]-5-(trifluoromethyl)benzamide] | 8.9 | 3.8 | – |
